Assay results: US8933113B2 (Merck Sharp & Dohme Corp., priority 2011, dated 2015)

Molecular target: T1, full-length human Mineralocorticoid Receptor (MR) (Homo sapiens, UniProt P08235)
T1 construct: host or cells: PathHunter CHO-K1 cells
T1 sequence (P08235 1-984): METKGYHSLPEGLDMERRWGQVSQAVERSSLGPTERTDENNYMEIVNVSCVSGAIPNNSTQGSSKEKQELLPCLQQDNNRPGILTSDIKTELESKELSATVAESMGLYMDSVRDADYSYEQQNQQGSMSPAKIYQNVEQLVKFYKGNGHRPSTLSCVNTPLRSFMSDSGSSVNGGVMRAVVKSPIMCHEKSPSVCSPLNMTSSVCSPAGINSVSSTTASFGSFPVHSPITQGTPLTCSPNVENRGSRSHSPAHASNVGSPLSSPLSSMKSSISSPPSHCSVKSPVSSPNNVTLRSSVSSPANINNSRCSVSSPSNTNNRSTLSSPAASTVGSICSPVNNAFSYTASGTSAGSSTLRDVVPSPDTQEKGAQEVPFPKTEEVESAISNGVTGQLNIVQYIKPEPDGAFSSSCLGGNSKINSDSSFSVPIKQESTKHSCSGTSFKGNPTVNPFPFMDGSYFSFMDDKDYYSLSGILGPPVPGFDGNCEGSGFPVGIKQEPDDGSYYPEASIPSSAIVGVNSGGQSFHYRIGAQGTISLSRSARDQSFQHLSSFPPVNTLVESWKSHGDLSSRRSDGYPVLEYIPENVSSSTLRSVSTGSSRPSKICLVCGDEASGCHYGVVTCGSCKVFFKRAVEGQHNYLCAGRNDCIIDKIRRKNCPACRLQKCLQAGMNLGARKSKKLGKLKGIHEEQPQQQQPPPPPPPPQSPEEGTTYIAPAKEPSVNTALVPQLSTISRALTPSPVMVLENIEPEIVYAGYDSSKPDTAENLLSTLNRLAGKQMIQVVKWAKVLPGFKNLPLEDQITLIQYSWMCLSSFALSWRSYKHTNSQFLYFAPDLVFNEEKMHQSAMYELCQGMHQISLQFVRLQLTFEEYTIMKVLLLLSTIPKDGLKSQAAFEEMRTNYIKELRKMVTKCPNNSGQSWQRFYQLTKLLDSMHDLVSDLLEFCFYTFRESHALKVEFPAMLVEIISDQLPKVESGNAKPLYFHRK
Test: human MR NH Pro assay (PathHunter Protein:Protein interaction assay), MR antagonist activity
Format: cell-based
Conditions: PathHunter CHO-K1 cells overexpressing human MR; aldosterone about 0.3 nM; 6 hours at 37° C.; luminescence; read-out: Primary Assay IP rating (IP = inflection point for a given dose-response titration curve)
From the text: The activity of the compounds of the present invention regarding mineralocorticoid receptor antagonism can be evaluated using the following assay.
Assessment of MR Potency in HMR NH Pro Assay
The human MR NH Pro assay is a commercially available PathHunter™ Protein:Protein interaction assay (DiscoveRx; http://www.discoverx.com/nhrs/prod-nhrs.php) that measures the ability of compounds to antagonize full-length human Mineralocorticoid Receptor (MR) binding to a coactivator peptide.
6. Test compounds are titrated starting at 4.4 mM, 10-point titration in 1:3 dilution.
3. Add 5 μL 6× agonist (final aldosterone concentration should be about 0.3 nM to about 1.0 nM) to all wells (using the PlateMate Plus.)
• (ThermoFisher) (except those wells in columns 23 and 24) 4. Add 5 uL of assay media to all wells in column 23 and 24. 5. Incubate 6 hrs at 37° C., 5% CO2. 6. Add 15 uL 3× DiscoveRx detection reagent to each well. 7. Incubate 1 hour at room temperature (keep plates stored in the dark). 8. Read plates on Envision (PerkinElmer) luminesence plate reader and analyze using ADA.

Structure (SMILES) | IC50
COC(=O)C(c1ccc(OC)cc1)n1ccc2c([N+](=O)[O-])cccc21 (centres unmarked) [Compound 5, methyl (4-methoxyphenyl)(4-nitro-1H-indol-1-yl)acetate] | 500 to 5000 nM
COC(=O)C(c1ccc(F)cc1Cl)n1ccc2cc(C#N)ccc21 (centres unmarked) [Compound 11, methyl (2-chloro-4-fluorophenyl)(5-cyano-1H-indol-1-yl)acetate] | 500 to 5000 nM
COC(=O)C(c1ccc(F)cc1Cl)n1ccc2cc(Cl)ccc21 (centres unmarked) [Compound 12, methyl (2-chloro-4-fluorophenyl)(5-chloro-1H-indol-1-yl)acetate] | 500 to 5000 nM
COC(=O)C(c1ccc(F)cc1Cl)n1ccc2cc(F)ccc21 (centres unmarked) [Compound 13, methyl (2-chloro-4-fluorophenyl)(5-fluoro-1H-indol-1-yl)acetate] | 500 to 5000 nM
COC(=O)C(c1ccc(F)cc1Cl)n1ccc2ccc(Cl)cc21 (centres unmarked) [Compound 14, methyl (2-chloro-4-fluorophenyl)(6-chloro-1H-indol-1-yl)acetate] | 500 to 5000 nM
COC(=O)C(c1ccc(F)cc1Cl)n1ccc2cccc(F)c21 (centres unmarked) [Compound 15, methyl (2-chloro-4-fluorophenyl)(7-fluoro-1H-indol-1-yl)acetate] | 500 to 5000 nM
COC(=O)C(c1ccc(F)cc1Cl)n1ccc2cccc(OCc3ccccc3)c21 (centres unmarked) [Compound 16, methyl [7-(benzyloxy)-1H-indol-1-yl](2-chloro-4-fluorophenyl)acetate] | 500 to 5000 nM
CC(C)(C)OC(=O)C(c1ccc(Cl)cc1)n1ccc2c(NS(C)(=O)=O)cccc21 (centres unmarked) [Compound 18, tert-butyl (4-chlorophenyl){4-[(methylsulfonyl)amino]-1H-indol-1-yl}acetate] | 500 to 5000 nM
COC(=O)C(c1ccc(Cl)cc1)n1ncc2c(NS(C)(=O)=O)cccc21 (centres unmarked) [Compound 19, methyl (4-chlorophenyl){4-[(methylsulfonyl)amino]-1H-indazol-1-yl}acetate] | 500 to 5000 nM
COC(=O)C(c1ccc(Br)cc1)n1ccc2c(NS(C)(=O)=O)cccc21 (centres unmarked) [Compound 24, methyl (4-bromophenyl){4-[(methylsulfonyl)amino]-1H-indol-1-yl}acetate] | 500 to 5000 nM
COC(=O)C(C)(c1ccc(Cl)cc1Cl)n1ccc2c(NS(C)(=O)=O)cccc21 (centres unmarked) [Compound 29, Methyl 2-(2,4-dichlorophenyl)-2-{4-[(methylsulfonyl)amino]-1H-indol-1-yl}propanoate] | 500 to 5000 nM
CCC(C(=O)NCCOC)(c1ccc(Cl)cc1)n1ccc2c(NS(C)(=O)=O)cccc21 (centres unmarked) [Compound 42, 2-(4-chlorophenyl)-N-(2-methoxyethyl)-2-{4-[(methylsulfonyl)amino]-1H-indol-1-yl}butanamide] | 500 to 5000 nM
CC[C@](C(=O)NCc1ccccc1)(c1ccc(Cl)cc1)n1ccc2c(NS(C)(=O)=O)cccc21 [Compound 43, (R)—N-benzyl-2-(4-chlorophenyl)-2-{4-[(methylsulfonyl)amino]-1H-indol-1-yl}butanamide] | 500 to 5000 nM

Results, then the molecule that gave them:

IC50 | Structure (SMILES)
< 100 nM | CCC(CCO)(c1ccc(Cl)cc1)n1ccc2c(NS(C)(=O)=O)cccc21 (single isomer, unassigned) [Compound 161, N-(1-(3-(4-Chlorophenyl)-1-hydroxypentan-3-yl)-1H-indol-4-yl)methanesulfonamide]
< 100 nM | CCC(c1ccc(Cl)cc1)(C(C)N)n1ccc2c(NS(C)(=O)=O)cccc21 (single isomer, unassigned) [Compound 176, N-(1-(2-amino-3-(4-chlorophenyl)pentan-3-yl)-1H-indol-4-yl)methanesulfonamide]
< 100 nM | CCn1nnc(C(CC)(c2ccc(Cl)cc2)n2ccc3c(NS(C)(=O)=O)cccc32)n1 (single isomer, unassigned) [Compound 179, N-(1-(1-(4-chlorophenyl)-1-(2-ethyl-2H-tetrazol-5-yl)propyl)-1H-indol-4-yl)methane sulfonamide]
< 100 nM | CCC(CCC(F)(F)F)(c1ccc(Cl)cc1)n1ccc2c(NS(C)(=O)=O)cccc21 (single isomer, unassigned) [Compound 180, N-(1-(3-(4-chlorophenyl)-6,6,6-trifluorohexan-3-yl)-1H-indol-4-yl)methane sulfonamide]
500 to 5000 nM | COC(=O)C(c1ccc(Cl)cc1)n1ccc2c([N+](=O)[O-])cccc21 (centres unmarked) [Compound 1, methyl (4-chlorophenyl)(4-nitro-1H-indol-1-yl)acetate]
100 to 500 nM | COC(=O)C(c1ccc(F)cc1Cl)n1ccc2c([N+](=O)[O-])cccc21 (centres unmarked) [Compound 2, methyl (2-chloro-4-fluorophenyl)(4-nitro-1H-indol-1-yl)acetate]
100 to 500 nM | COC(=O)C(c1ccc(Cl)cc1Cl)n1ccc2c([N+](=O)[O-])cccc21 (centres unmarked) [Compound 3, methyl (2,4-dichlorophenyl)(4-nitro-1H-indol-1-yl)acetate]
500 to 5000 nM | COC(=O)C(c1cccc(Br)c1)n1ccc2c([N+](=O)[O-])cccc21 (centres unmarked) [Compound 4, methyl (3-bromophenyl)(4-nitro-1H-indol-1-yl)acetate]
< 100 nM | CC[C@](C#N)(c1ccc(Cl)cc1)n1ccc2c(NS(C)(=O)=O)cccc21 [Compound 5a, (R)—N-{1-[1-(4-chlorophenyl)-1-cyanopropyl]-1H-indol-4-yl}methanesulfonamide]
100 to 500 nM | CCC(C(=O)OC(C)(C)C)(c1ccc(Cl)cc1)n1ccc2c(NS(C)(=O)=O)cccc21 (centres unmarked) [Compound 26, tert-Butyl 2-(4-chlorophenyl)-2-{4-[(methylsulfonyl)amino]-1H-indol-1-yl}butanoate]
100 to 500 nM | CC(C)(C)OC(=O)C(CC#N)(c1ccc(Cl)cc1)n1ccc2c(NS(C)(=O)=O)cccc21 (centres unmarked) [Compound 27, tert-Butyl 2-(4-chlorophenyl)-3-cyano-2-{4-[(methylsulfonyl)amino]-1H-indol-1-yl}propanoate]
100 to 500 nM | CCC(C(=O)OC)(c1ccc(Cl)cc1Cl)n1ccc2c(NS(C)(=O)=O)cccc21 (centres unmarked) [Compound 30, Methyl 2-(2,4-dichlorophenyl)-2-{4-[(methylsulfonyl)amino]-1H-indol-1-yl}butanoate]
100 to 500 nM | CCC(C(=O)OC)(c1ccc(F)cc1Cl)n1ccc2c(NS(C)(=O)=O)cccc21 (centres unmarked) [Compound 31, Methyl 2-(2-chloro-4-fluorophenyl)-2-{4-[(methylsulfonyl)amino]-1H-indol-1-yl}butanoate]
100 to 500 nM | CCC(C(=O)OC)(c1ccc(Cl)cc1)n1ncc2c(NS(C)(=O)=O)cccc21 (centres unmarked) [Compound 32, Methyl 2-(4-chlorophenyl)-2-{4-[(methylsulfonyl)amino]-1H-indazol-1-yl}butanoate]
100 to 500 nM | C=CCC(C(=O)OC)(c1ccc(Cl)cc1)n1ccc2c(NS(C)(=O)=O)cccc21 (centres unmarked) [Compound 33, Methyl 2-(4-chlorophenyl)-2-{4-[(methylsulfonyl)amino]-1H-indol-1-yl}pent-4-enoate]
< 100 nM | COC(=O)CC(C(=O)OC)(c1ccc(Cl)cc1)n1ccc2c(NS(C)(=O)=O)cccc21 (centres unmarked) [Compound 35, Dimethyl 2-(4-chlorophenyl)-2-{4-[(methylsulfonyl)amino]-1H-indol-1-yl}butanedioate]
100 to 500 nM | CC[C@](C(N)=O)(c1ccc(Cl)cc1)n1ccc2c(NS(C)(=O)=O)cccc21 [Compound 40, (R)-2-(4-chlorophenyl)-2-{4-[(methylsulfonyl)amino]-1H-indol-1-yl}butanamide]
100 to 500 nM | CC[C@](C(=O)NC1CC1)(c1ccc(Cl)cc1)n1ccc2c(NS(C)(=O)=O)cccc21 [Compound 41, (R)-2-(4-chlorophenyl)-N-cyclopropyl-2-{4-[(methylsulfonyl)amino]-1H-indol-1-yl}butanamide]
100 to 500 nM | CC[C@](C(=O)NC(C)C)(c1ccc(Cl)cc1)n1ccc2c(NS(C)(=O)=O)cccc21 [Compound 44, (R)-2-(4-chlorophenyl)-N-(1-methylethyl)-2-{4-[(methylsulfonyl)amino]-1H-indol-1-yl}butanamide]
